Measurements as given in PMC8899614, “Triterpenoid Saponins From the Fruit of Acanthopanax senticosus (Rupr. & Maxim.) Harms” (Frontiers in Chemistry, 2022).
Where two headings read alike, the source gives them in different places.

How the values were obtained:
[1] = system: NO production in LPS-induced BV2 microglia; assay: NO production inhibition in LPS-induced BV2 microglia (Griess reaction); type: cell-based; settings: for IC50: read-out: Inhibitory effects on NO in LPS-induced BV-2 cells, IC50; for Inhibitory effect on neuroinflammation (in words): LPS-induced BV2 microglia neuroinflammation model
Protocol: The BV2 microglia cells were plated into a 96-well plate. After adding LPS (1 μg/ml) to each well for 12 h, it was treated with or without compounds of various concentrations (0, 100, 200, 300, 400, and 600 μM) for 12 h. The NO production in the supernatant was measured by the Griess reaction. The absorbance at 570 nm was measured using a microplate reader. The NO concentration and the inhibitory rate were calculated through a calibration curve. Quercetin was used as the positive control. Experiments were repeated three times.

[2] = system: BV2 microglia; assay: Cytotoxicity on BV2 microglia by CCK-8 assay; settings: read-out: Cytotoxic activities on BV2 cells, IC50; BV2 cells, 24 h, CCK-8, OD 450 nm, repeated three times
Protocol: (§1) A drug-containing medium (0, 50, 100, 200, 400, and 600 μM) was added to each well of the administration group, and an equal volume of medium was also added to the blank group, and they were incubate at 37°C and 5% CO2 for 24 h. After the culture, 10 μl of CCK-8 was added to each well and incubated for 1–4 h at 37°C and 5% CO2. The absorbance (OD) value of each well at 450 nm was detected with a microplate reader, repeating three times, and its IC50 value was calculated.

[3] = Cytotoxicity on BV2 microglia by CCK-8 assay; settings: mouse, BV2 microglia cells
Protocol: as §1

[4] = LPS 1 μg/ml, Griess reaction, n = 3, x ± s, IC50 > 100 μM deemed inactive

## HN-saponin K [Compound 9]
[1]; [4]
  IC50: > 100 µM
[2]
  IC50: 241 ± 18.6 µM

## CC1(C)CCC2(C(=O)O)CCC3(C)C(=CCC4C5(C)CCC(OC6OCC(O)C(OC7OC(CO)C(O)C(O)C7O)C6O)C(C)(C)C5CCC43C)C2C1 [Compound 21, oleanolic acid 3-O-β-D-glucopyranosyl (1→3)-α-L-arabinopyranoside]
[2]
  IC50: 306 ± 28 µM

## 3-O-β-D-(6′-O-methyl-glucuronopyranosyl) oleanolic acid [Compound 16]
[1]
  Inhibitory effect on neuroinflammation (in words): moderate inhibitory effects on neuroinflammation
[2]
  IC50: 102 ± 9.77 µM

## CC1(C)CC[C@]2(C(=O)O[C@@H]3O[C@H](CO)[C@@H](O)[C@H](O)[C@H]3O)CC[C@]3(C)C(=CC[C@@H]4[C@@]5(C)CC[C@H](O[C@@H]6OC[C@H](O)[C@H](O)[C@H]6O)[C@@](C)(CO)[C@@H]5CC[C@]43C)[C@@H]2C1 [Compound 19, HN-saponin F]
[1]; [4]
  IC50: > 100 µM
[2]
  IC50: 466 ± 35.1 µM

## tragopogonsaponin A methyl ester [Compound 14]
[1]; [4]
  IC50: > 100 µM
[2]
  IC50: 585 ± 45.6 µM

## 3-O-6′-O-methyl-β-D-glucuronopy-ranoside of gypsogenin [Compound 15]
[1]; [4]
  IC50: > 100 µM
[2]
  IC50: 157 ± 11 µM

## 3-[(O-β-D-glucopyranosyl-(1→3)-α-L-arabinopyranosyl)oxy]-30- noroleana-12,20(29)-dien-28-oic acid [Compound 29]
[1]; [4]
  IC50: > 100 µM
[2]
  IC50: 127 ± 10.6 µM

## CCOC(=O)C1OC(OC2CCC3(C)C(CCC4(C)C3CC=C3C5CC(C)(C)CCC5(C(=O)OC5OC(CO)C(O)C(O)C5O)CCC34C)C2(C)CO)C(O)C(O)C1O [Compound 2, 3-O-β-D-6′-ethyl-glucuronopyranosyl-23-hydroxy-olean-12-en-28-β-D-glucopyranosyl]
[1]; Mus musculus, BV-2
  IC50: > 100 µM
[3]
  IC50 at 24 h: 157 ± 12.7 µM

## lucyoside H [Compound 23]
[1]; [4]
  IC50: > 100 µM
[2]
  IC50: 131 ± 10 µM

## C[C@@H]1O[C@@H](O[C@H]2[C@H](O[C@H]3CC[C@]4(C)[C@H]5CC=C6[C@@H]7CC(C)(C)CC[C@]7(C(=O)O)CC[C@@]6(C)[C@]5(C)CC[C@H]4C3(C)C)OC[C@H](O)[C@@H]2O)[C@H](O)[C@H](O)[C@H]1O [Compound 18, 3-O-[α-L-rhamnopyranosyl-(1→2)-α-L-arabinopyranosyl] oleanolic acid]
[1]; [4]
  IC50: > 100 µM
[2]
  IC50: 204 ± 19.8 µM

## paritriside E [Compound 27]
[1]; [4]
  IC50: > 100 µM
[2]
  IC50: 133 ± 11.8 µM

## CC1OC(OC2C(OC3CCC4(C)C(CCC5(C)C4CC=C4C6CC(C)(C)CCC6(C(=O)OC6OC(CO)C(O)C(O)C6O)CCC45C)C3(C)C)OCC(O)C2O)C(O)C(O)C1O [Compound 26, oleanolic acid 3-O-α-L-rhamnopyranosyl(1→2)-α-L-arabinopyranosyl-28-O-β-D-glucopyranosyl ester]
[2]
  IC50: 160 ± 13.5 µM

## 3-O-β-D-glucuronopyranosyl-3β,16α-dihydroxyolean-12-en-28-oic acid [Compound 10]
[1]
  Inhibitory effect on neuroinflammation (in words): moderate inhibitory effects on neuroinflammation
[2]
  IC50: 215 ± 20.2 µM

## CC1(C)CC[C@]2(C(=O)O)CC[C@]3(C)C(=CC[C@@H]4[C@@]5(C)CCC(O[C@@H]6O[C@H](C(=O)O)[C@@H](O)[C@H](O)[C@H]6O)[C@@](C)(C=O)[C@@H]5CC[C@]43C)C2C1 (stereo partly shown) [Compound 11, gypsogenin 3-O-glucuronide]
[1]; [4]
  IC50: > 100 µM
[2]
  IC50: 402 ± 39.5 µM

## CC1(C(=O)O)CCC2(C(=O)O)CCC3(C)C(=CCC4C5(C)CCC(OC6OCC(O)C(O)C6OC6OC(CO)C(O)C(O)C6O)C(C)(C)C5CCC43C)C2C1 [Compound 4, 3β-[(O-β-D-glucopyranosyl-(1→2)-α-L-arabinopyranosyl)oxy]olean12-ene-28,29-dioic acid]
[1]; Mus musculus, BV-2
  IC50: > 100 µM
[3]
  IC50 at 24 h: 246 ± 21.2 µM

## CC1OC(OC2C(OC3CCC4(C)C(CCC5(C)C4CC=C4C6CC(C)(O)CCC6(C(=O)O)CCC45C)C3(C)C)OCC(O)C2O)C(O)C(O)C1O [Compound 3, 3β-[(α-L-rhamnopyranosyl-(1→2)-α-L-arabinopyranosyl)oxy]-20α,30-dihydroxy-norolean-12-en-28-oic acid]
[1]; Mus musculus, BV-2
  IC50: > 100 µM
[3]
  IC50 at 24 h: 150 ± 13.6 µM

## 3-O-α-arabinopyranosyl-(1→2)-β-glucopyranoside-30-norolean-12,20(29)-dien-28-oic acid [Compound 28]
[1]; [4]
  IC50: > 100 µM
[2]
  IC50: 565 ± 48 µM

## CC1(CO)CCC2(C(=O)O)CCC3(C)C(=CCC4C5(C)CCC(OC6OCC(O)C(OC7OC(CO)C(O)C(O)C7O)C6O)C(C)(C)C5CCC43C)C2C1 (stereo not drawn) [Compound 1, 3-O-β-glucopyranosyl-(1→3)-β-arabinopyranosyl-29-hydroxy-olean-12-en-28-oic acid]
[1]; Mus musculus, BV-2
  IC50: > 100 µM
[3]
  IC50 at 24 h: 143 ± 10.9 µM

## 3-O-α-rhamnopyranose- (1→2)-α-arabinopyranosyl-29-hydroxy-olean-12-en-28-oic acid [Compound 17]
[1]; [4]
  IC50: > 100 µM
[2]
  IC50: 235 ± 21.1 µM

## lucyoside F [Compound 22]
[1]; [4]
  IC50: > 100 µM
[2]
  IC50: 146 ± 12.7 µM

## O=c1c(O)c(-c2ccc(O)c(O)c2)oc2cc(O)cc(O)c12 [Quercetin, reference compound]
[1]; Mus musculus, BV-2
  IC50: 10.5 ± 1.07 µM

## CC1(C)CC[C@]2(C(=O)O)CC[C@]3(C)C(=CC[C@@H]4[C@@]5(C)CC[C@H](O[C@@H]6O[C@H](C(=O)O)[C@@H](O)[C@H](O)[C@H]6O)C(C)(C)[C@@H]5CC[C@]43C)[C@@H]2C1 [Compound 8, oleanolic acid 3-O-β-D-glucuronopyranoside]
[1]; [4]
  IC50: > 100 µM
[2]
  IC50: 107 ± 9.59 µM

## HN-saponin D1 [Compound 6]
[1]; [4]
  IC50: > 100 µM
[2]
  IC50: 108 ± 8.24 µM

## hederagenin-3-O-β-D- glucuronopyranoside 6′-O-methyl ester [Compound 13]
[1]
  Inhibitory effect on neuroinflammation (in words): moderate inhibitory effects on neuroinflammation

## CC1(C)CC[C@]2(C(=O)O)CC[C@]3(C)C(=CC[C@@H]4[C@@]5(C)CC[C@H](O[C@@H]6OC[C@H](O)[C@H](O)[C@H]6O[C@@H]6O[C@H](CO)[C@@H](O)[C@H](O)[C@H]6O)C(C)(C)[C@@H]5CC[C@]43C)[C@@H]2C1 [Compound 20, saponin PE]
[1]; [4]
  IC50: > 100 µM
[2]
  IC50: 136 ± 10.6 µM

## elatoside G [Compound 12]
[1]
  Inhibitory effect on neuroinflammation (in words): moderate inhibitory effects on neuroinflammation
[2]
  IC50: 264 ± 22.9 µM

## COC(=O)C1OC(OC2CCC3(C)C(CCC4(C)C3CCC3C5=CC(C)(C)CCC5(C(=O)O)CCC34C)C2(C)CO)C(O)C(O)C1O [Compound 5, 3β,23-dihydroxyolean-18-en-28-oic acid 3-O-β-D-glucuronopyranoside-6′-O-methyl ester]
[1]
  Inhibitory effect on neuroinflammation (in words): moderate inhibitory effects on neuroinflammation
[1]; Mus musculus, BV-2
  IC50: < 100 µM
[3]
  IC50 at 24 h: 236 ± 20.2 µM

## CC1(C)CC[C@]2(C(=O)O)CC[C@]3(C)C(=CC[C@@H]4[C@@]5(C)CC[C@H](O[C@@H]6O[C@H](CO)[C@@H](O)[C@H](O)[C@H]6O[C@@H]6O[C@H](CO)[C@@H](O)[C@H](O)[C@H]6O)C(C)(C)[C@@H]5CC[C@]43C)[C@@H]2C1 [Compound 24, 3-O-β-D-glucopyranosyl-(1→2)-β-D-glucopyranosyl oleanolic acid]
[1]; [4]
  IC50: > 100 µM
[2]
  IC50: 189 ± 15.2 µM

## CC1(C)CC[C@]2(C(=O)O)CC[C@]3(C)C(=CC[C@@H]4[C@@]5(C)CC[C@H](O[C@@H]6OC[C@H](O)[C@H](O)[C@H]6O)[C@@](C)(CO)[C@@H]5CC[C@]43C)[C@@H]2C1 [Compound 7, hederagenin glycosides 3-O-α-L-arabinopyranoside]
[1]; [4]
  IC50: > 100 µM
[2]
  IC50: 124 ± 10.6 µM
